# Patent US12195463B2 (priority 2018, dated 2025)
# What was measured:
# SERT = SERT (Homo sapiens, UniProt P31645); test: biochemical; format: binding
# D2 = D2 (Homo sapiens, UniProt P14416); settings: qualitative statement
# D1 = D1 (Homo sapiens, UniProt P21728); settings: qualitative statement
# Sequence of D1 (P21728 whole entry): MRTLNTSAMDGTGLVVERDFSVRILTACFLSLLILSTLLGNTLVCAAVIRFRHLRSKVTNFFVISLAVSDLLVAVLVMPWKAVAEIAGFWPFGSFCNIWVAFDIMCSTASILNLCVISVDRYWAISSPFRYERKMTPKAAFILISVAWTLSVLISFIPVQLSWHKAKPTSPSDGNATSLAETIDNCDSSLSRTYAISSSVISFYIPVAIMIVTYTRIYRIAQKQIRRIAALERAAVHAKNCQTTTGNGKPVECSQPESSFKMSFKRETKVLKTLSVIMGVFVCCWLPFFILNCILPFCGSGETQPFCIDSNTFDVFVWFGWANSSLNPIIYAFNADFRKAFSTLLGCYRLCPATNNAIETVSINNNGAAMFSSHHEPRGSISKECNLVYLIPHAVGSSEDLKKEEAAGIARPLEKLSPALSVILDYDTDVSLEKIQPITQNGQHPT
# Sequence of SERT (P31645 whole entry, species assumed): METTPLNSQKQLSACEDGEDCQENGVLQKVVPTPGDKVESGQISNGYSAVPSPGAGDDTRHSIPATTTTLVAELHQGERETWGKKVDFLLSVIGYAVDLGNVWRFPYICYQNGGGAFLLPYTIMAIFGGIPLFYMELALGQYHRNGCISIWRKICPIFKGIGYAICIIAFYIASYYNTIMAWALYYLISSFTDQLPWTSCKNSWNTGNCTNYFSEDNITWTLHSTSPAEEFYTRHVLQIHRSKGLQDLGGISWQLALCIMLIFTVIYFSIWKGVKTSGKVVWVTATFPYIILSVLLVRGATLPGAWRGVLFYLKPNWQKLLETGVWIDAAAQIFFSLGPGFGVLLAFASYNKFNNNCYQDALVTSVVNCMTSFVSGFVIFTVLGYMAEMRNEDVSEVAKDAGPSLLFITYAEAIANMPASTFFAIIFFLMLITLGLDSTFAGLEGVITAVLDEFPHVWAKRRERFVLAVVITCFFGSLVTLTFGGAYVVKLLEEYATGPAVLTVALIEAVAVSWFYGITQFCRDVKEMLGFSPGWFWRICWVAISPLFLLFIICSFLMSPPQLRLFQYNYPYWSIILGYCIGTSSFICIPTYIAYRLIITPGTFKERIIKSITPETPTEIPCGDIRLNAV
# Sequence of D2 (P14416 1-414 isoform P14416-2): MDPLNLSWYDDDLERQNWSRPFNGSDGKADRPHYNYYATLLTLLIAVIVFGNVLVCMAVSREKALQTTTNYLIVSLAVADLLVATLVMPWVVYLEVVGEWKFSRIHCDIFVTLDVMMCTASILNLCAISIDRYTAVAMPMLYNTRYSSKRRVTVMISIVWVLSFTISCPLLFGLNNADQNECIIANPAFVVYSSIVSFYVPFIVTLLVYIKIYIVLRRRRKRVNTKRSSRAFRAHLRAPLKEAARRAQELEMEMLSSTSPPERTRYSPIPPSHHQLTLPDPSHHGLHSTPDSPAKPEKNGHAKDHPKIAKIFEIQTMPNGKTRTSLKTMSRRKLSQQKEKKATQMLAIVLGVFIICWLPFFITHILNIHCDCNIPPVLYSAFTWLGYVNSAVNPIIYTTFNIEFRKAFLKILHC
compound,measurement,setting,value
"O=C1CN2c3c(cccc3[C@@H]3CN(CCCOc4ccc(F)cc4)CC[C@@H]32)N1 [Compound A, reference compound]",Ki,SERT; read-out: Ki (nM) or maximum inhibition,≤ 600 nM
"O=C1CN2c3c(cccc3[C@H]3CN(CCCOc4ccc(F)cc4)CC[C@H]32)N1 [Example 1, (6bS,10aR)-8-(3-(4-fluorophenoxy)propyl)-6b,7,8,9,10,10a-hexahydro-1H-pyrido[3′,4′:4,5]pyrrolo[1,2,3-de]quinoxalin-2(3H)-one]","SERT activity, in words",SERT; qualitative statement,no SERT activity
same,"D2 affinity, in words",D2,weak D2 affinity
same,"D1 receptor binding, in words",D1,moderately strong D1 receptor binding
